Where only a bound is given, the exact number is not on record here.

This experiment has as its target LSD-1 enzyme (Homo sapiens (Human), UniProt O60341). Kind of experiment: LANCE LSD1/KDM1A demethylase assay (LSD1 histone demethylase biochemical assay). The conditions noted are these: 1 nM LSD-1 enzyme, 1 hour preincubation at 25° C., 0.4 μM Biotin-labeled Histone H3 peptide substrate. A general note: Time-resolved FRET reads energy transfer from a long-lived donor to a nearby acceptor.
Regarding `CCOc1ccc(-c2c(-c3ccc(C#N)cc3)nc(N3CCC(N(C)C)CC3)c3cncn23)cn1` [Example 99, 4-[8-[4-(dimethylamino)piperidin-1-yl]-5-(6-ethoxypyridin-3-yl)imidazo[1,5-a]pyrazin-6-yl]benzonitrile], the IC50 was at most 50 nM.

`CN(C)C1CCN(c2nc(-c3ccc(C#N)cc3)c(-c3ccc4c(cnn4C)c3)n3cncc23)CC1` [Example 100, 4-[8-[4-(dimethylamino)piperidin-1-yl]-5-(1-methyl-1H-indazol-5-yl)imidazo[1,5-a]pyrazin-6-yl]benzonitrile]: the IC50 was at most 50 nM. The compound `CN1CCC[C@@H](COc2nc(-c3ccc(C#N)cc3)c(-c3ccc4c(c3)CC(O)C4)n3cncc23)C1` (stereo partly drawn) [Example 101, 4-(5-(2-hydroxy-2,3-dihydro-1H-inden-5-yl)-8-{[(3R)-1-methylpiperidin-3-yl]methoxy}imidazo[1,5-a]pyrazin-6-yl)benzonitrile] displayed an IC50 of at most 50 nM. The compound `CN1CCC[C@@H](COc2nc(-c3ccc(C#N)c(F)c3)c(-c3ccc4c(c3)CCC(=O)N4C)n3cncc23)C1` [Example 102, 2-fluoro-4-(5-(1-methyl-2-oxo-1,2,3,4-tetrahydroquinolin-6-yl)-8-{[(3R)-1-methylpiperidin-3-yl]methoxy}imidazo[1,5-a]pyrazin-6-yl)benzonitrile] gave a half-maximal inhibitory concentration (IC50) of at most 50 nM. In turn, `CN(C)C1CCN(c2nc(-c3ccc(C#N)cc3)c(-c3ccc4nccnc4c3)n3cncc23)CC1` [Example 103, 4-(8-(4-(dimethylamino)piperidin-1-yl)-5-(quinoxalin-6-yl)imidazo[1,5-a]pyrazin-6-yl)benzonitrile] displayed a 50% inhibitory concentration (IC50) of at most 50 nM. To `CN1C(=O)COc2cc(-c3c(-c4ccc(C#N)cc4)nc(N4CCC(N(C)C)CC4)c4cncn34)cnc21` [Example 105, 4-[8-[4-(dimethylamino)piperidin-1-yl]-5-(4-methyl-3-oxo-3,4-dihydro-2H-pyrido[3,2-b][1,4]oxazin-7-yl)imidazo[1,5-a]pyrazin-6-yl]benzonitrile] belongs at most 50 nM. Consider `CN1C(=O)OCc2cc(-c3c(-c4ccc(C#N)cc4)nc(N4CCC(N(C)C)CC4)c4cncn34)ccc21` [Example 106, 4-[8-[4-(dimethylamino)piperidin-1-yl]-5-(1-methyl-2-oxo-1,4-dihydro-2H-3,1-benzoxazin-6-yl)imidazo[1,5-a]pyrazin-6-yl]benzonitrile], for which the half-maximal inhibitory concentration (IC50) was at most 50 nM. Take `CN(C)C1CCN(c2nc(-c3ccc(C#N)cc3)c(-c3cnc4c(c3)ncn4C)n3cncc23)CC1` [Example 107, 4-[8-[4-(dimethylamino)piperidin-1-yl]-5-(3-methyl-3H-imidazo[4,5-b]pyridin-6-yl)imidazo[1,5-a]pyrazin-6-yl]benzonitrile]: the IC50 is at most 50 nM. Consider `CCn1c(=O)oc2cc(-c3c(-c4ccc(C#N)cc4)nc(N4CCC(N(C)C)CC4)c4cncn34)ccc21` [Example 108, 4-[8-[4-(dimethylamino)piperidin-1-yl]-5-(3-ethyl-2-oxo-2,3-dihydro-1,3-benzoxazol-6-yl)imidazo[1,5-a]pyrazin-6-yl]benzonitrile], for which the IC50 was at most 50 nM.

As to `CN(C)C1CCN(c2nc(-c3ccc(C#N)cc3)c(-c3ccc4c(c3F)n(C)c(=O)n4C)n3cncc23)CC1` [Example 109, 4-[8-[4-(dimethylamino)piperidin-1-yl]-5-(4-fluoro-1,3-dimethyl-2-oxo-2,3-dihydro-1H-benzimidazol-5-yl)imidazo[1,5-a]pyrazin-6-yl]benzonitrile], the IC50 was at most 50 nM.

For the compound `CCN1CCC[C@@H](COc2nc(-c3ccc(C#N)cc3)c(-c3cc4oc(=O)n(C)c4cc3F)n3cncc23)C1` [Example 111, 4-[8-{[(3R)-1-ethylpiperidin-3-yl]methoxy}-5-(5-fluoro-3-methyl-2-oxo-2,3-dihydro-1,3-benzoxazol-6-yl)imidazo[1,5-a]pyrazin-6-yl]benzonitrile], the IC50 is at most 50 nM.

`CN(C)[C@H]1CCN(c2nc(-c3ccc(C#N)cc3)c(-c3cc4oc(=O)n(C)c4cc3F)n3cncc23)C1` [Example 113, 4-[8-[(3S)-3-(dimethylamino)pyrrolidin-1-yl]-5-(5-fluoro-3-methyl-2-oxo-2,3-dihydro-1,3-benzoxazol-6-yl)imidazo[1,5-a]pyrazin-6-yl]benzonitrile]: the IC50 is at most 50 nM. Under `CCN1CCC[C@@H](COc2cc(-c3ccc(C#N)cc3)c(-c3ccc4c(c3)CC(=O)N4C)n3cncc23)C1` [Example 114, (R)-4-(8-((1-ethylpiperidin-3-yl)methoxy)-5-(1-methyl-2-oxoindolin-5-yl)imidazo[1,5-a]pyridin-6-yl)benzonitrile] stands at most 50 nM.

The compound `COCCN1CCC[C@@H](COc2cc(-c3ccc(C#N)cc3)c(-c3cnc4c(c3)OCCO4)n3cncc23)C1` [Example 115, (R)-4-(5-(2,3-dihydro-[1,4]dioxino[2,3-b]pyridin-7-yl)-8-((1-(2-methoxyethyl)piperidin-3-yl)methoxy)imidazo[1,5-a]pyridin-6-yl)benzonitrile] yielded an IC50 of at most 50 nM. Under `CN1CCC[C@@H](COc2cc(-c3ccc(C#N)cc3)c(-c3cnc4c(c3)OCCN4C)n3cncc23)C1` [Example 116, (R)-4-(5-(4-methyl-3,4-dihydro-2H-pyrido[3,2-b][1,4]oxazin-7-yl)-8-((1-methylpiperidin-3-yl)methoxy)imidazo[1,5-a]pyridin-6-yl)benzonitrile] stands at most 50 nM. Take `CC(O)CN1CCC[C@@H](COc2cc(-c3ccc(C#N)cc3)c(-c3ccc4nccnc4c3)n3cncc23)C1` (stereo partly drawn) [Example 120, 4-(8-(((3R)-1-(2-hydroxypropyl)piperidin-3-yl)methoxy)-5-(quinoxalin-6-yl)imidazo[1,5-a]pyridin-6-yl)benzonitrile]: the IC50 was at most 50 nM. In turn, `COCCN1CCC[C@@H](COc2cc(-c3ccc(C#N)cc3)c(-c3cnc4ccoc4c3)n3cncc23)C1` [Example 121, 4-(5-furo[3,2-b]pyridin-6-yl-8-{[(3R)-1-(2-methoxyethyl)piperidin-3-yl]methoxy}imidazo[1,5-a]pyridin-6-yl)benzonitrile] gave a 50% inhibitory concentration (IC50) of at most 50 nM. The compound `COCCN1CCC[C@@H](COc2cc(-c3ccc(C#N)cc3)c(-c3cnc4c(c3)CCCO4)n3cncc23)C1` [Example 122, (R)-4-(5-(3,4-dihydro-2H-pyrano[2,3-b]pyridin-6-yl)-8-((1-(2-methoxyethyl)piperidin-3-yl)methoxy)imidazo[1,5-a]pyridin-6-yl)benzonitrile] returned an IC50 of at most 50 nM. `CC(O)c1ccc(-c2c(-c3ccc(C#N)cc3)cc(OC[C@@H]3CCCN(C)C3)c3cncn23)cc1` (stereo partly drawn) [Example 123, 4-(5-[4-(1-hydroxyethyl)phenyl]-8-{[(3R)-1-methylpiperidin-3-yl]methoxy}imidazo[1,5-a]pyridin-6-yl)benzonitrile]: the concentration for half-maximal inhibition (IC50) is at most 50 nM. For the compound `Cc1ccc(-c2c(-c3ccc(C#N)cc3)cc(OC[C@@H]3CCCN(C)C3)c3cncn23)cn1` [Example 125, 4-[8-{[(3R)-1-methylpiperidin-3-yl]methoxy}-5-(6-methylpyridin-3-yl)imidazo[1,5-a]pyridin-6-yl]benzonitrile], the half-maximal inhibitory concentration (IC50) was at most 50 nM. `Cc1cc(-c2c(-c3ccc(C#N)cc3)cc(OC[C@@H]3CCCN(C)C3)c3cncn23)cc(F)c1C(C)O` (stereo partly drawn) [Example 126, 4-(5-[3-fluoro-4-(1-hydroxyethyl)-5-methylphenyl]-8-{[(3R)-1-methylpiperidin-3-yl]methoxy}imidazo[1,5-a]pyridin-6-yl)benzonitrile] had an IC50 of at most 50 nM. `Cc1ncc(-c2c(-c3ccc(C#N)cc3)cc(OC[C@@H]3CCCN(C)C3)c3cncn23)cc1F` [Example 127, 4-(5-(5-fluoro-6-methylpyridin-3-yl)-8-{[(3R)-1-methylpiperidin-3-yl]methoxy}imidazo[1,5-a]pyridin-6-yl)benzonitrile] displayed an IC50 of at most 50 nM. To `CCN1CCC[C@@H](COc2cc(-c3ccc(C#N)cc3)c(-c3cc(C)c(CO)c(F)c3)n3cncc23)C1` [Example 128, 4-{8-{[(3R)-1-ethylpiperidin-3-yl]methoxy}-5-[3-fluoro-4-(hydroxymethyl)-5-methylphenyl]imidazo[1,5-a]pyridin-6-yl}benzonitrile] belongs at most 50 nM.

With `COCCN1CCC[C@@H](COc2cc(-c3ccc(C#N)cc3)c(-c3cc(C)c(CO)c(F)c3)n3cncc23)C1` [Example 129, 4-(5-[3-fluoro-4-(hydroxymethyl)-5-methylphenyl]-8-{[(3R)-1-(2-methoxyethyl)piperidin-3-yl]methoxy}imidazo[1,5-a]pyridin-6-yl)benzonitrile], the half-inhibitory concentration (IC50) is at most 50 nM.

The compound `COCCN1CCC[C@@H](COc2cc(-c3ccc(C#N)cc3)c(-c3cnc(C)c(C)c3)n3cncc23)C1` [Example 130, 4-(5-(5,6-dimethylpyridin-3-yl)-8-{[(3R)-1-(2-methoxyethyl)piperidin-3-yl]methoxy}imidazo[1,5-a]pyridin-6-yl)benzonitrile] gave an IC50 of at most 50 nM.

Turning to `CCN1CCC[C@@H](COc2cc(-c3ccc(C#N)cc3)c(-c3cnc(C)c(C)c3)n3cncc23)C1` [Example 131, 4-(5-(5,6-dimethylpyridin-3-yl)-8-{[(3R)-1-ethylpiperidin-3-yl]methoxy}imidazo[1,5-a]pyridin-6-yl)benzonitrile], the half-inhibitory concentration (IC50) was at most 50 nM.

Compound `CN1CCC[C@@H](COc2cc(-c3ccc(C#N)cc3)c(-c3cnn(C4CCC4)c3)n3cncc23)C1` [Example 134, 4-(5-(1-cyclobutyl-1H-pyrazol-4-yl)-8-{[(3R)-1-methylpiperidin-3-yl]methoxy}imidazo[1,5-a]pyridin-6-yl)benzonitrile] displayed a concentration for half-maximal inhibition (IC50) of at most 50 nM. In turn, `CN1C(=O)CCc2cc(-c3c(-c4ccc(C#N)cc4)nc(N4CCC(N(C)C)CC4)c4cncn34)ccc21` [Example 137, 4-[8-[4-(dimethylamino)piperidin-1-yl]-5-(1-methyl-2-oxo-1,2,3,4-tetrahydroquinolin-6-yl)imidazo[1,5-a]pyrazin-6-yl]benzonitrile] returned an IC50 of at most 50 nM.

On to `CN(C)C1CCN(c2nc(-c3ccc(C#N)cc3)c(-c3cc(F)c4c(c3)n(C)c(=O)n4C)n3cncc23)CC1` [Example 138, 4-(8-(4-(dimethylamino)piperidin-1-yl)-5-(7-fluoro-1,3-dimethyl-2-oxo-2,3-dihydro-1H-benzo[d]imidazol-5-yl)imidazo[1,5-a]pyrazin-6-yl)benzonitrile], for which the IC50 was at most 50 nM.

As a reminder, the IC50 is the point on the concentration scale where inhibition reaches its midpoint. A high value points to a need for much substance.

(Values after patent US10047086B2, “Imidazopyridines and imidazopyrazines as LSD1 inhibitors” (Incyte Corporation, priority 2014, dated 2018).)
